Test results taken from ChEMBL document CHEMBL4602690, “Pigments of the Moss Paraleucobryum longifolium: Isolation and Structure Elucidation of Prenyl-Substituted 8,8'-Linked 9,10-Phenanthrenequinone Dimers” (J Nat Prod, 2020).

Key:
Assay type in all cases: functional, cell-based
[1] = system: SiHa; assay: Antiproliferative activity against human SiHa cells by MTT assay
[2] = system: MDA-MB-231; assay: Antiproliferative activity against human MDA-MB-231 cells by MTT assay
[3] = system: A2780; assay: Antiproliferative activity against human A2780 cells by MTT assay
[4] = system: HeLa; assay: Antiproliferative activity against human HeLa cells by MTT assay

Measured: IC50

C=C(C)[C@H](CCC(C)(C)O)Cc1c(O)ccc2c1C(=O)C(=O)c1c-2c(O)cc(OC)c1-c1c(OC)cc(O)c2c1C(=O)C(=O)c1c-2ccc(O)c1C[C@@H](CCC(C)(C)O)C(=C)C
< 10 µM: all assays above

COc1cc(O)c2c(c1-c1c(OC)cc(O)c3c1C(=O)C(=O)c1c-3ccc(O)c1CCC(C)(C)O)C(=O)C(=O)c1c-2ccc(O)c1CCC(C)(C)O
< 10 µM: all assays above
